Results published in PubChem BioAssay AID248 (DTP/NCI, 2004).
Several values for one entry are separate records, joined by “and”; a condition that tells them apart may be missing. Equal values may be shown once. Inconclusive results and toxic doses are left out. Cut-off read from the data, not from the text of the source: active = T/C of 150% or more; inactive = T/C below 125%.

Test system: L1210 leukemia ip in BDF1 mice, survival T/C
Experiment: NCI In Vivo Anticancer Drug Screen. Data for tumor model L1210 Leukemia (intraperitoneal) in B6D2F1 (BDF1) mice
Conditions: endpoint: mean survival time, higher = longer survival
Summary of the method: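 Tumor cells were implanted, animals were treated, and survival was followed. The result divides the treated measurement by the vehicle-control measurement.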

[1] = dose: 75.0 mg/kg/injection, schedule: Q01DX001 (ip), vehicle: saline
[2] = dose: 150.0 mg/kg/injection, schedule: Q01DX001 (ip), vehicle: saline
[3] = dose: 100.0 mg/kg/injection, schedule: Q01DX009 (ip), vehicle: saline with Tween-80
[4] = dose: 100.0 mg/kg/injection, schedule: Q04DX002 (ip), vehicle: saline with Tween-80
[5] = dose: 200.0 mg/kg/injection, schedule: Q01DX009 (ip), vehicle: saline with Tween-80
[6] = dose: 200.0 mg/kg/injection, schedule: Q04DX002 (ip), vehicle: saline with Tween-80
[7] = dose: 400.0 mg/kg/injection, schedule: Q01DX009 (ip), vehicle: saline with Tween-80
[8] = dose: 100.0 mg/kg/injection, schedule: Q01DX009 (ip), vehicle: saline
[9] = dose: 100.0 mg/kg/injection, schedule: Q04DX003 (ip), vehicle: saline
[10] = dose: 200.0 mg/kg/injection, schedule: Q01DX009 (ip), vehicle: saline
[11] = dose: 200.0 mg/kg/injection, schedule: Q04DX003 (ip), vehicle: saline
[12] = dose: 400.0 mg/kg/injection, schedule: Q04DX003 (ip), vehicle: saline
[13] = dose: 200.0 mg/kg/injection, schedule: Q01DX009 (ip), vehicle: Klucel (hydroxypropylcellulose) (HPC)

Measured: T/C

CCOC(=O)C1C(=O)CC2c3nc4ccccc4cc3CN2C1=O (stereo not given)
inactive: [1] 97 % of control | [2] 114 % of control

CCOC(=O)C1OC12CCC(C(C)(C)C)CC2 (stereo not given)
inactive: [3] 95 % of control | [4] 100 % of control | [5] 91 % of control | [6] 100 % of control | [7] 88 % of control | dose: 400.0 mg/kg/injection, schedule: Q04DX002 (ip), vehicle: saline with Tween-80 93 % of control

COC(=O)c1nnn(CN(CN(CN(Cn2nnc(C(=O)OC)c2C(=O)OC)[N+](=O)[O-])[N+](=O)[O-])[N+](=O)[O-])c1C(=O)OC
inactive: dose: 75.0 mg/kg/injection, schedule: Q01DX001 (ip), vehicle: Klucel (hydroxypropylcellulose) (HPC) 108 % of control | dose: 150.0 mg/kg/injection, schedule: Q01DX001 (ip), vehicle: Klucel (hydroxypropylcellulose) (HPC) 100 % of control | dose: 300.0 mg/kg/injection, schedule: Q01DX001 (ip), vehicle: Klucel (hydroxypropylcellulose) (HPC) 110 % of control

C=CCc1cccc(CC=C)c1OCCN(CC)CC
inactive: dose: 25.0 mg/kg/injection, schedule: Q01DX009 (ip), vehicle: saline 98 % of control | dose: 50.0 mg/kg/injection, schedule: Q01DX009 (ip), vehicle: saline 105 % of control | [8] 95 % of control and 107 % of control

CCOC(=O)c1ccc(N=NN(C)C)cc1
inactive: dose: 30.0 mg/kg/injection, schedule: Q01DX Z (ip), vehicle: carboxymethylcellulose (CMC) 97 % of control and 102 % of control | dose: 60.0 mg/kg/injection, schedule: Q01DX Z (ip), vehicle: carboxymethylcellulose (CMC) 107 % of control | dose: 90.0 mg/kg/injection, schedule: Q01DX Z (ip), vehicle: carboxymethylcellulose (CMC) 110 % of control and 124 % of control

N#CSCCN1C(=O)C2C3CCC(O3)C2C1=O (stereo not given)
inactive: dose: 6.25 mg/kg/injection, schedule: Q04DX002 (ip), vehicle: saline with Tween-80 94 % of control | dose: 12.5 mg/kg/injection, schedule: Q04DX002 (ip), vehicle: saline with Tween-80 97 % of control

O=[N+]([O-])c1ccccc1N=Nc1c(O)[nH]c2c(Cl)ccc(Cl)c12
inactive: [1] 89 % of control | [2] 93 % of control

CC(=O)N(C(C)=O)c1ccccc1
inactive: [3] 105 % of control | [5] 107 % of control | [7] 115 % of control

CC(N)CN(C)C (stereo not given)
inactive: [8] 98 % of control | [9] 99 % of control | [10] 106 % of control | [11] 100 % of control | [12] 96 % of control

COc1ccc(N=C2OC(=O)c3ccccc32)cc1
inactive: [8] 91 % of control | [9] 94 % of control | [10] 100 % of control | [11] 103 % of control | dose: 400.0 mg/kg/injection, schedule: Q01DX009 (ip), vehicle: saline 89 % of control | [12] 92 % of control

Cc1cc(C)c(SSc2c(C)cc(C)cc2C)c(C)c1
inactive: dose: 50.0 mg/kg/injection, schedule: Q01DX001 (ip), vehicle: saline 106 % of control | dose: 100.0 mg/kg/injection, schedule: Q01DX001 (ip), vehicle: saline 104 % of control | dose: 200.0 mg/kg/injection, schedule: Q01DX001 (ip), vehicle: saline 100 % of control

O=C1N=C2C=CC=CN2CC1O (stereo not given)
inactive: dose: 100.0 mg/kg/injection, schedule: Q04DX003 (ip), vehicle: saline with Tween-80 88 % of control | dose: 200.0 mg/kg/injection, schedule: Q04DX003 (ip), vehicle: saline with Tween-80 89 % of control | dose: 400.0 mg/kg/injection, schedule: Q04DX003 (ip), vehicle: saline with Tween-80 89 % of control

CC(C)N=NCCO
inactive: dose: 100.0 mg/kg/injection, schedule: Q01DX001 (ip), vehicle: Klucel (hydroxypropylcellulose) (HPC) 101 % of control | dose: 200.0 mg/kg/injection, schedule: Q01DX001 (ip), vehicle: Klucel (hydroxypropylcellulose) (HPC) 103 % of control | [13] 92 % of control | dose: 400.0 mg/kg/injection, schedule: Q01DX001 (ip), vehicle: Klucel (hydroxypropylcellulose) (HPC) 99 % of control

N#Cc1ccc(-c2nc3ncnc(N)c3[nH]2)cc1
inactive: dose: 100.0 mg/kg/injection, schedule: Q04DX002 (ip), vehicle: Klucel (hydroxypropylcellulose) (HPC) 97 % of control | dose: 200.0 mg/kg/injection, schedule: Q04DX002 (ip), vehicle: Klucel (hydroxypropylcellulose) (HPC) 105 % of control | dose: 400.0 mg/kg/injection, schedule: Q04DX002 (ip), vehicle: Klucel (hydroxypropylcellulose) (HPC) 101 % of control

CCCCS(=O)(=O)c1nc2ccc([N+](=O)[O-])cc2s1
inactive: [4] 92 % of control | [6] 95 % of control

CC12CCC(=O)N1C(C(=O)O)CS2 (stereo not given)
inactive: dose: 100.0 mg/kg/injection, schedule: Q04DX002 (ip), vehicle: saline 91 % of control | dose: 200.0 mg/kg/injection, schedule: Q04DX002 (ip), vehicle: saline 102 % of control | dose: 400.0 mg/kg/injection, schedule: Q04DX002 (ip), vehicle: saline 98 % of control

COc1ccc(C)cc1NC(=O)Nc1ccccc1C(F)(F)F
inactive: dose: 100.0 mg/kg/injection, schedule: Q01DX009 (ip), vehicle: Klucel (hydroxypropylcellulose) (HPC) 89 % of control | [13] 91 % of control | dose: 400.0 mg/kg/injection, schedule: Q01DX009 (ip), vehicle: Klucel (hydroxypropylcellulose) (HPC) 100 % of control

O=[N+]([O-])c1cnc(/C=C/c2ccccc2)nc1
inactive: dose: 100.0 mg/kg/injection, schedule: Q01DX001 (ip), vehicle: carboxymethylcellulose (CMC) 97 % of control | dose: 200.0 mg/kg/injection, schedule: Q01DX001 (ip), vehicle: carboxymethylcellulose (CMC) 95 % of control | dose: 400.0 mg/kg/injection, schedule: Q01DX001 (ip), vehicle: carboxymethylcellulose (CMC) 89 % of control
